Biological target: T1, human ANO6 (Homo sapiens, UniProt Q4KMQ2)
T1 construct: expressed in transfected cells
T1 sequence (Q4KMQ2 1-931 isoform Q4KMQ2-2): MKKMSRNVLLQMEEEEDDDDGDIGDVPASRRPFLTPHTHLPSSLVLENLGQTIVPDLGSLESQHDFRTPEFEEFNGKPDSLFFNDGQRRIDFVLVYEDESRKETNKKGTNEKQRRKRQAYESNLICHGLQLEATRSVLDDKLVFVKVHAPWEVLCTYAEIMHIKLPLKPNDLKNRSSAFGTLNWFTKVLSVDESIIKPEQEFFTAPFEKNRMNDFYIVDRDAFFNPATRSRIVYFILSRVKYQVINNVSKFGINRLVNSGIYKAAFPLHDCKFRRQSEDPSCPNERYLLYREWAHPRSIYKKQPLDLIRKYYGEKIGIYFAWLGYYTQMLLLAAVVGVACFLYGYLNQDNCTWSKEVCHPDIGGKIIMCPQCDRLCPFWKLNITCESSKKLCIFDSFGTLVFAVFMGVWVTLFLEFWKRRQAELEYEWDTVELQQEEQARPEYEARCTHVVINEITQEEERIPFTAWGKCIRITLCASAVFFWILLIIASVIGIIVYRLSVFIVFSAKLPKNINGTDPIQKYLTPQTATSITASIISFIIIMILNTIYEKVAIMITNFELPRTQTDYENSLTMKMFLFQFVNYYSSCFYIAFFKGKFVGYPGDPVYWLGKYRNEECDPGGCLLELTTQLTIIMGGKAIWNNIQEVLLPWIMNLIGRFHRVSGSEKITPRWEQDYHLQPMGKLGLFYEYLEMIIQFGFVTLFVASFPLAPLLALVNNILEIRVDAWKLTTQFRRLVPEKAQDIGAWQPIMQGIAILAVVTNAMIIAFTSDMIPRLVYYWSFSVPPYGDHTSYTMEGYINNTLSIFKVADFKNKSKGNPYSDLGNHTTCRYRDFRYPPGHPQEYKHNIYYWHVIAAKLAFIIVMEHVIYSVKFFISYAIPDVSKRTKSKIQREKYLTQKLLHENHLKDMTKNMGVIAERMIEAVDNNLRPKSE
Experiment: LACT C2 assay (phosphatidylserine scramblase function assay)
Assay type: cell-based
Settings: FRT cells expressing human ANO6, 10 μM ionomycin; for inhibition at 0.1 µM: test compound 100 nM, read-out: Inhibition Level 100 nM; for inhibition at 1 µM: test compound 1 μM, read-out: Inhibition Level 1 μM
Description: Phosphatidylserine Scramblase Function Assay
1. Materials and Instruments
Ionomycin (Alomonelab, cat. #I-700), DAPI (Sigma-Aldrich, cat. #D8417), paraformaldehyde (Biosesang, cat. #P2031), Lionheart FX Automated Microscope (BioTek, Winooski), Python3 (Python Software Foundation), and OpenCV (Open Source Computer Vision Library).
Fisher rat thyroid (FRT) cells stably expressing human ANO6 (GenBank accession no. NP_001191732.1, provided by J. H. Nam, Dongguk University College of Medicine, Korea) were grown in DMEM/Ham's F-12 (1:1) medium with 10% FBS, 2 mM L-549 glutamine, 100 units/mL penicillin, and 100 μg/mL streptomycin at 37° C. and 5% CO2.
FRT cells stably expressing human ANO6 were plated in 96 well black-walled microplates at a density of 2×10^4 cells/well. After 24 hours incubation, cells were treated with the test compound (dissolved in DMSO) were treated to each well to become 1% v/v DMSO for 10 minutes, then 10 μM of ionomycin was applied. Finally each well was washed with 200 μL PBS after 10 minutes. After washout, the phosphatidylserine and nuclei were stained with PBS containing 500 nM Lactadherin-C2 (Lact-C2)-GFP, then cells were washed with 200 μL PBS. Cells were fixed with 4% paraformaldehyde for 5 minutes at room temperature. For morphological analysis, some cells were stained with fluorescently labelled DAPI for 15 minutes at room temperature. Quantitative analysis of the fluorescence intensity of Lact-C2-GFP was performed with Python3 and OpenCV. OpenCV was used to remove background and noise pixels, and the sum of all remaining pixel values was used to evaluate the fluorescence intensity of Lact-C2-GFP.
The inhibitory activity (%) of each of the test compounds was obtained by the following steps. In each row of 96 well plate, the inhibitory activity of each of the test compounds was calculated as percentages. The inhibitory activity of a negative control group to which neither compounds nor ionomycin were treated was set to be 100%, and the inhibitory activity of a positive control group to which ionomycin was treated and compounds were not treated was set to be 0%. The assay was performed in triplicate, and the results were averaged.

Structure (SMILES) | inhibition at 0.1 µM [%] | inhibition at 1 µM [%]
O=C(NCc1ccc(Cl)cc1Cl)c1cccc(Nc2ncc(-c3cccc(F)c3)cn2)c1 [Compound 207, N-(2,4-dichlorobenzyl)-3-((5-(3-fluorophenyl)pyrimidin-2-yl)amino)benzamide] | < 30 | 30 to 60
Cc1c(C2CC2NC(=O)c2cccc(Nc3ncc(-c4ccccc4)cn3)c2)cnn1C (stereo not shown) [Compound 152, N-(2-(1,5-dimethyl-1H-pyrazol-4-yl)cyclopropyl)-3-((5-phenylpyrimidin-2-yl)amino)benzamide] | < 30 | < 30
CCN1CCN(c2cc(CNC(=O)c3cccc(Nc4ccc(-c5ccccc5)nn4)c3)ccc2F)CC1 [Compound 226, N-(3-(4-ethylpiperazin-1-yl)-4-fluorobenzyl)-3-((6-phenylpyridazin-3-yl)amino)benzamide] | < 30 | < 30
O=C(O)c1cccc(CCNC(=O)c2cccc(Nc3ncc(-c4cccc(F)c4)cn3)c2)c1 [Compound 129, 3-(2-(3-((5-(3-fluorophenyl)pyrimidin-2-yl)amino)benzamido)ethyl)benzoic acid] | < 30 | < 30
O=C(NCc1ccc(F)c(Br)c1)c1cccc(Nc2ccc(-c3ccccc3)nn2)c1 [Compound 201, N-(3-bromo-4-fluorobenzyl)-3-((6-phenylpyridazin-3-yl)amino)benzamide] | < 30 | 30 to 60
O=C(NCc1ccc(F)c(Cl)c1)c1cccc(Nc2ccc(-c3ccccc3)nn2)c1 [Compound 211, N-(3-chloro-4-fluorobenzyl)-3-((6-phenylpyridazin-3-yl)amino)benzamide] | < 30 | ≥ 60
O=C(NCc1c(F)cc(F)cc1F)c1cccc(Nc2ncc(-c3cccc(F)c3)cn2)c1 [Compound 205, 3-((5-(3-fluorophenyl)pyrimidin-2-yl)amino)-N-(2,4,6-trifluorobenzyl)benzamide] | < 30 | 30 to 60
N#CC1(NC(=O)c2cccc(Nc3ccc(-c4ccccc4)nn3)c2)CC1 [Compound 225, N-(1-cyanocyclopropyl)-3-((6-phenylpyridazin-3-yl)amino)benzamide] | < 30 | 30 to 60
COc1cc(CNC(=O)c2cccc(Nc3ccc(-c4ccccc4)nn3)c2)ccc1F [Compound 232, N-(4-fluoro-3-methoxybenzyl)-3-((6-phenylpyridazin-3-yl)amino)benzamide] | < 30 | < 30
N#CC1(NC(=O)c2cccc(Nc3ccc(-c4cccc(F)c4)nn3)c2)CC1 [Compound 223, N-(1-cyanocyclopropyl)-3-((6-(3-fluorophenyl)pyridazin-3-yl)amino)benzamide] | < 30 | 30 to 60
O=C(O)c1ccc(CCNC(=O)c2cccc(Nc3ncc(-c4cccc(F)c4)cn3)c2)cc1 [Compound 130, 4-(2-(3-((5-(3-fluorophenyl)pyrimidin-2-yl)amino)benzamido)ethyl)benzoic acid] | < 30 | < 30
N#CC(NC(=O)c1cccc(Nc2ccc(-c3ccccc3)nn2)c1)c1ccc(F)cc1 (stereo not shown) [Compound 212, N-(cyano(4-fluorophenyl)methyl)-3-((6-phenylpyridazin-3-yl)amino)benzamide] | < 30 | < 30
CC(C)(NC(=O)c1cccc(Nc2ccc(-c3ccccc3)nn2)c1)c1ccc(F)cc1 [Compound 213, N-(2-(4-fluorophenyl)propan-2-yl)-3-((6-phenylpyridazin-3-yl)amino)benzamide] | < 30 | 30 to 60
O=C(NCC1(O)CC1)c1cccc(Nc2ccc(-c3ccccc3)nn2)c1 [Compound 237, N-((1-hydroxycyclopropyl)methyl)-3-((6-phenylpyridazin-3-yl)amino)benzamide] | < 30 | < 30
COc1cc(F)ccc1CNC(=O)c1cccc(Nc2ccc(-c3cccc(F)c3)nn2)c1 [Compound 229, N-(4-fluoro-2-methoxybenzyl)-3-((6-(3-fluorophenyl)pyridazin-3-yl)amino)benzamide] | < 30 | < 30

Next, values leading:

inhibition at 0.1 µM [%] | inhibition at 1 µM [%] | Structure (SMILES)
< 30 |  | O=C(Nc1cccc(F)c1)C1CCCC(Nc2ccc(-c3ccccc3)nn2)C1 (stereo not shown) [Compound 191, N-(3-fluorophenyl)-3-((6-phenylpyridazin-3-yl)amino)cyclohexane-1-carboxamide]
< 30 | ≥ 60 | Cc1cc(F)ccc1CNC(=O)c1cccc(Nc2ccc(-c3ccccc3)nn2)c1 [Compound 210, N-(4-fluoro-2-methylbenzyl)-3-((6-phenylpyridazin-3-yl)amino)benzamide]
< 30 |  | CNc1cccc(NC(=O)c2cccc(Nc3ncc(-c4cccc(F)c4)cn3)c2)c1 [Compound 177, 3-((5-(3-fluorophenyl)pyrimidin-2-yl)amino)-N-(3-(methylamino)phenyl)benzamide]
< 30 |  | O=C(Nc1nnc(-c2ccccc2)[nH]1)c1cccc(Nc2ncc(-c3cccc(F)c3)cn2)c1 [Compound 194, 3-((5-(3-fluorophenyl)pyrimidin-2-yl)amino)-N-(5-phenyl-4H-1,2,4-triazol-3-yl)benzamide]
< 30 |  | O=C(Nc1ccc2c(c1)CNC2)c1cccc(Nc2ncc(-c3cccc(F)c3)cn2)c1 [Compound 192, 3-((5-(3-fluorophenyl)pyrimidin-2-yl)amino)-N-(isoindolin-5-yl)benzamide]
< 30 | < 30 | CN1CCC(CNC(=O)c2cccc(Nc3ccc(-c4cccc(F)c4)cn3)c2)CC1 [Compound 140, 3-((5-(3-fluorophenyl)pyridin-2-yl)amino)-N-((1-methylpiperidin-4-yl)methyl)benzamide]
< 30 |  | O=C(Nc1cccc(F)c1)c1cccc(NC2CCC(c3ccccc3)CC2)c1 (single isomer, unassigned) [Compound 188, N-(3-fluorophenyl)-3-((4-phenylcyclohexyl)amino)benzamide]
< 30 | 30 to 60 | O=C(NC1(c2ccccc2)CC1)c1cccc(Nc2ncc(-c3cccc(F)c3)cn2)c1 [Compound 133, 3-((5-(3-fluorophenyl)pyrimidin-2-yl)amino)-N-(1-phenylcyclopropyl)benzamide]
< 30 | ≥ 60 | Cc1ccc(NC(=O)c2cccc(Nc3ncc(-c4cccc(F)c4)cn3)c2)cc1C [Compound A92]
< 30 | < 30 | O=C(NC1(CO)CC1)c1cccc(Nc2ccc(-c3cccc(F)c3)nn2)c1 [Compound 224, 3-((6-(3-fluorophenyl)pyridazin-3-yl)amino)-N-(1-(hydroxymethyl)cyclopropyl)benzamide]
< 30 | ≥ 60 | O=C(Nc1cccc(F)c1)c1cccc(Nc2ncc(-c3cccc(F)c3)cn2)c1 [Compound A91]
< 30 | < 30 | Cc1ccccc1CNC(=O)c1cccc(Nc2ncc(-c3cccc(F)c3)cn2)c1 [Compound A99]

Source: patent publication US20230080054A1 (ILDONG PHARMACEUTICAL CO., LTD., priority 2021, published 2023)
